The results in this text go back to US20200316090A1, “TARGETED THERAPEUTICS” (MADRIGAL PHARMACEUTICALS, INC., priority 2012, published 2020).

Each structure is given as a SMILES string. Like-named read-outs stand apart in the source and are kept apart here.

Data set [1] deals with MCF-7 breast cancer cells. Kind of data set: Mouse xenograft efficacy in an MCF-7 breast cancer model. In kind it is in vivo, CD-1 nude mice. As for the experimental part:
MCF-7 breast cancer cells were purchased from ATCC. […] Fetal bovine serum was then added to the medium. The final concentration of fetal bovine serum was 10%. Cells were cultured at 37° C. and 5% CO2.
Mice that were not put on treatment were euthanized. Animals were sourced through CRL (Wilmington, Mass.).

Data set [2] is described as follows: Tissue distribution of SDC-TRAP and degradation products in tumor-bearing mice (plasma, tumor, heart). In kind it is in vivo, Female SCID Mouse (H1975). The settings on record: mouse, in vivo.
Procedure: A 150 ng/mL solution of SDC-TRAP-0002 in methanol was prepared using an internal spiking solution (500 μg/mL SDC-TRAP-0002 in DMSO). Using the 10 mM stock solutions of the SDC-TRAP molecule and its Hsp90i binding moiety and effector moiety in DMSO, spiking solutions were prepared at 0.025, 0.05, 0.1, 0.5, 1, 5, 10, 50, 100, 250, and 500 μM in DMSO. 5 μL of each spiking solution was added to a 96-deep well plate.
Quality control standards were prepared from 5 μL of 0.1, 1, and 10 μM calibration standard spiking solution added in triplicate into 96-deep well plate and adding 50 μL of matrix (plasma or homogenized tumor).
To prepare test samples, test plasma was diluted as needed using blank plasma. Tumor samples were pulverized in liquid nitrogen, weighed, and homogenized in PBS at 5× volume to sample weight. 50 μL of unknown plasma or homogenized tumor sample was mixed with 5 μL of DMSO. The samples were extracted by precipitating calibration standards, QC standards, and unknown samples with 200 μL of internal standard solution. The samples were mixed by vortex at room temperature for approximately 1.5 minutes, then centrifuge at 2-8° C. 150 μL of supernatant was collected and 25 μL of water added. Samples were mixed and analyzed by LC-MS/MS.
Samples of plasma, heart and tumor were excised from a euthanized mouse, homogenized in PBS at 5 times tissue weight and diluted in 5 μL DMSO/50 μL sample. Prior to analysis, 55 μL samples and calibration standards were precipitated in 200 μL methanol in 96-well plates. Samples were mixed on a vortex mixer for 1.5 minutes at 1500 rpm at room temperature, then centrifuged at 4400 rpm for 10 minutes at 8° C. 150 μL of each supernatant was transferred to a well of a new 96-well plate, and 25 μL of water was added and mixed with the sample. […] For the analysis of samples from female SCID mice, a gradient of solvent A (water/0.1% formic acid) and B (acetonitrile/0.1% formic acid) was used as in Table A below.
Data set [3] is described as follows: Artificial membrane permeability assay (PAMPA). On the technique in general: The PAMPA barrier holds no transporters, so it reflects passive diffusion.
Procedure: (§1) In order to test the ability SDC-TRAP molecules of the invention to enter cells, an artificial membrane permeability assay (“PAMPA”) was used. […] LC/MS was used in conjunction with PAMPA assays to determine the ability of the SDC-TRAP molecules of the invention to permeate cells.
(§2) Pre-coated PAMPA plates were warmed to room temperature for at least 30 minutes prior to adding assay components.
(§3) Stock solutions were prepared with the SDC-TRAP molecules to be tested. In order to make a working solution, either 50 μL of 100 μM Stock in DMSO+950 μL of PBS or 50 μL of 200 stock was added to 96 deep well plate, resulting in a 5 μM final concentration or a 10 μM final concentration, respectively. […] 200 μL of PBS was added into the corresponding wells of an acceptor PAMPA plates.
(§4) The acceptor plate was lowered onto the donor plate and allowed to incubate for five hours. After five hours, a 50 μL aliquot was removed from each well of each plate and added into a new 96 deep-well plate.
(§5) 100 μL of methanol containing an internal standard was added to each aliquot and analyzed by LC/MS. The internal standard was 150 ng/ml SDC-TRAP-0002.
(§6) In order to calculate the permeability for each SDC-TRAP molecule and the control molecules, the following formula was used:
Permeability (in Unit of Cm/s):
(§7) [formula] • C0=initial compound concentration in donor well (mM) • CD (t)=compound concentration in donor well at time t. (mM) • CA (t)=compound concentration in acceptor well at time t. (mM) • VD=donor well volume=0.3 mL • VA=acceptor well volume=0.2 mL • A=filter area=0.3 cm^2 • t=incubation time=18000 s (5 h)
(§8) For the data presented in the table below, peak area was used in place of concentration in the formula above.
The nature of data set [4]: Tissue distribution of ganetespib in female CD-1 nu/nu mice bearing RERF human NSCLC xenografts. It counts as in vivo. Particulars: mouse, tumor, ganetespib 50 mg/kg IV, DRD. An excerpt: Tissue Distribution of Ganetespib in Female CD-1 Nu/Nu Mice Bearing RERF Human NSCLC Xenografts
To confirm the distribution of ganetespib in blood, livers, kidneys, brains, hearts, lungs and tumors after IV administration of ganetespib to female CD-1 nu/nu mice bearing RERF human NSCLC xenografts, and to examine metabolic profiles of ganetespib in plasma, red blood cells, and above tissues.
Animals: female CD-1 nu/nu mice bearing RERF human NSCLC xenografts (N=3/group)
Formulation: 10% DMSO, 18% Cremophor RH40, 3.6% dextrose solution (DRD)
Bleeding time points: 5 min, 6, 24 hr
Collected tissues: blood (plasma and red blood cells (RBC)), liver, kidneys, brain, heart, lung, tumor
Protein precipitation: 50 μL of 10 times diluted plasma or RBC+150 μL ACN (10 mM NH4OAc), vortexed and centrifuged at 10000 rpm for 8 min; 150 μL supernatant+150 μL water (10 mM NH4OAc)
Protein precipitation: 100 μL homogenized tissue (1:3 tissue: PBS buffer)+100 μL ACN (10 mM NH4OAc), vortexed and centrifuged at 10000 rpm for 8 min

Data set [5] can be described thus: Mouse plasma stability (Examples 16-18). It counts as in vitro ADME. Particulars: for Mouse (5 μM) % Remaining 1 h (37° C.) * / Mouse (10 μM) % Remaining 1 h (37° C.) *: sum of both peaks of parent chromatogram; for Mouse (5 μM) % Remaining 1 h (37° C.) §: data from single parent peak.
Procedure: This solution was used to precipitate all plasma samples in the study. 200 μL was pipetted into a 96 deepwell plate over dry ice. 10 μL of 1 mM stock in DMSO was added to a 1.5 mL microfuge tube, then 990 μL of plasma. Samples were mixed by vortex, then 50 μL of each sample was added in triplicate to a 96-well plate containing internal standard solution. This was designated the 0 hour time point sample. 250 μL of the remaining plasma sample was added to each of four 96 deepwell plates—one per time point. Samples were incubated at 37° C. with gentle shaking for 0.25, 0.5, and 1 hour. After each time point, one plate of each sample was removed from the shaker and placed on wet ice for approximately 2 minutes. 50 μL plasma aliquots (in triplicate) were added to the deepwell plate containing internal standard solution. After the last time point was extracted, the 96 deepwell plate was vortexed, then centrifuged at 2-8° C. 150 μL of supernatant was collected and 25 μL of water was added. Samples were mixed and analyzed by LC-MS/MS.
The stability of seven SDC-TRAP types in mouse plasma was measured as follows. 990 μL mouse plasma aliquots from a common stock were spiked with 10 μL of 1 mM stock of one of seven SDC-TRAP samples identified in the table below. Each sample was mixed and divided into 250 μL aliquots, each representing time points 0, 15 minutes, 30 minutes or 1 hour. At the prescribed time point, 3×50 μL samples were each mixed with 200 μL of methanol containing internal standard and held on dry ice until all time point samples were extracted. The samples collectively were vortex mixed for 1.5 minutes at 1500 rpm, then centrifuged at 4400 rpm for 10 minutes at 8° C.
For data set [6] the following is noted: PAMPA.
Procedure: as §1, §2, §3, §4, §5, §6
Permeability (in Unit of Cm/s):
as §7, §8
The next data set in a line: in vitro. The settings on record: PAMPA, Permeability (cm/s).

Procedure for in vitro: as §1, §2, §3, §4, §5, §6
Permeability (in Unit of Cm/s):
as §7, §8

Take `CCc1c2c(nc3ccc(OC(=O)N4CCC(CCn5ccc6cc(-n7c(O)nnc7-c7cc(C(C)C)c(O)cc7O)ccc65)CC4)cc13)-c1cc3c(c(=O)n1C2)COC(=O)[C@]3(O)CC` [SDC-TRAP-0063, 4,11-diethyl-4-hydroxy-3,14-dioxo-3,4,12,14-tetrahydro-1H-pyrano[3′,4′:6,7]indolizino[1,2-b]quinolin-9-yl 4-(2-(5-(3-(2,4-dihydroxy-5-isopropylphenyl)-5-hydroxy-4H-1,2,4-triazol-4-yl)-1H-indol-1-yl)ethyl)piperidine-1-carboxylate]: the “suppression of increase in tumor volume” value in data set [1] (150 mg/kg/1×wk versus 100 mg/kg/1×wk (FIG. 8)) is on record as “appears to prolong the suppression of increase in tumor volume compared to a lower dose (100 mg/kg/1×wk)”. The “tumor growth suppression versus comparators” value in data set [1] (either dose (150 or 100 mg/kg/1×wk) (FIG. 8)) was “greater tumor growth suppression than effector moiety irinotecan alone, or unconjugated binding moiety ganetespib and effector moiety irinotecan administered together”. In data set [2] (female, SCID), this compound registered a Kp at 1 h of 0.17, a Kp at 6 h of 2.25, a Kp at 24 h of 20.4 and a Kp at 48 h of 6.85. In data set [2] (female, SCID), this compound returned a Kp at […] of 0.01, a concentration at 1 h of 52900 nM, a concentration at 6 h of 4000 nM and a concentration at 24 h of 359 nM. Further, in data set [2] (female, SCID), the concentration at 48 h was 1110 nM. Besides, the “Tumor Conc.” value in data set [2] (female, SCID, 1 h) is 9.12 nmol/g of tissue. For the same compound, in data set [2] (female, SCID, 6 h), the “Tumor Conc.” value is on record as 8.98 nmol/g of tissue. For the same compound, the “Tumor Conc.” value in data set [2] (female, SCID, 24 h) is recorded as 7.32 nmol/g of tissue. Moreover, the “Tumor Conc.” value in data set [2] (female, SCID, 48 h) is 7.60 nmol/g of tissue. Also, in data set [2], the “selective targeting of tumor (tissue distribution in plasma, tumor and heart)” value was “selectively targets and accumulates in tumor cells”. Further, the “Mass Retention (%)” value in data set [3] (same protocol, second table) was 18.7%.
Consider `CC(C)c1cc(-c2n[nH]c(=O)n2-c2ccc3c(ccn3C)c2)c(O)cc1O` [ganetespib], for which the concentration at 5 min in data set [4] stood at 2350 nM.
`CCc1c2c(nc3ccc(OC(=O)N(C)CCCCN4CCN(Cc5ccc(-n6c(O)nnc6-c6cc(C(C)C)c(O)cc6O)cc5)CC4)cc13)-c1cc3c(c(=O)n1C2)COC(=O)C3(O)CC` (stereo not drawn) [SDC-TRAP-0044, 4,11-diethyl-4-hydroxy-3,14-dioxo-3,4,12,14-tetrahydro-1H-pyrano[3 ‘,4’:6,7]indolizino[1,2-b]quinolin-9-yl (4-(4-(4-(3-(2,4-dihydroxy-5-isopropylphenyl)-5-hydroxy-4H-1,2,4-triazol-4-yl)benzyl)piperazin-1-yl)butyl)(methyl)carbamate]: in data set [5] (1 h), the “Mouse (5 μM) % Remaining 1 h (37° C.) *” value was determined as 50% and the “Mouse (10 μM) % Remaining 1 h (37° C.) *” value is given as 61%. Also, in data set [5], the “Mouse (5 μM) % Remaining 19 h (37° C.)” value is on record as 41%.
As to `CC(C)c1cc(-c2nnc(O)n2-c2ccc3c(ccn3CCNC(=O)CCCCCNC(=O)CCCC[C@H]3SC[C@H]4NC(=O)N[C@H]43)c2)c(O)cc1O` [SDC-TRAP-0234], in data set [6], the “Mass Retention (%)” value turned out to be 9.56%, the “Permeability” value came out at 0.0123 ×10⁻⁶ cm/s and the “Permeability (10^−6 cm/s)” value is on record as 0.0123 10^−6 cm/s.
The term Papp denotes a coefficient for how fast a substance crosses the barrier. In data set [2] (female, SCID), `CCc1c2c(nc3ccc(O)cc13)-c1cc3c(c(=O)n1C2)COC(=O)[C@]3(O)CC` [SN-38, reference compound] returned a Kp at 6 h of 5.8, a Kp at 12 h of 105, a Kp at 24 h of 105 and a Kp at […] of 0.13. In data set [2] (female, SCID), the concentration at 6 h is 77.3 nM, the concentration at 12 h was determined as 9.55 nM and the concentration at 24 h turned out to be 9.55 nM. The “Tumor Conc.” value in data set [2] (female, SCID, 24 h) is given as 1.07 nmol/g of tissue. The “Tumor Conc.” value in data set [2] (female, SCID, 48 h) was 0.046 nmol/g of tissue. In “in vitro” (5 h incubation, peak area used in place of concentration, first table), this compound had a Papp of 0.643 ×10⁻⁶ cm/s. This compound came in with a Papp in the data set “in vitro” (same protocol, second table) of 1.87 ×10⁻⁶ cm/s. In data set [5] (1 h), the “Mouse (5 μM) % Remaining 1 h (37° C.) *” value is 87% and the “Mouse (10 μM) % Remaining 1 h (37° C.) *” value amounted to 64%. The “Mouse (5 μM) % Remaining 19 h (37° C.)” value in data set [5] is on record as 52%. The “Mass Retention (%)” value in data set [3] (5 h incubation, first table) was 38.2%. Further, in data set [3] (Permeability (10^−6 cm/s), 5 h incubation, peak area used in place of concentration, first table), the Papp at 5 h came to 0.643 ×10⁻⁶ cm/s. The compound further gave a Papp at 5 h in data set [3] (Permeability (10^−6 cm/s), same protocol, second table) of 1.87 ×10⁻⁶ cm/s. For the same compound, the “Mass Retention (%)” value in data set [3] (same protocol, second table) came out at 46.6%.
On to `CCc1c2c(nc3ccc(OC(=O)N4CCN(Cc5ccc(-n6c(O)nnc6-c6cc(C(C)C)c(O)cc6O)cc5)CC4)cc13)-c1cc3c(c(=O)n1C2)COC(=O)C3(O)CC` (stereo not drawn) [SDC-TRAP-0046, 4,11-diethyl-4-hydroxy-3,14-dioxo-3,4,12,14-tetrahydro-1H-pyrano[3′,4′:6,7]indolizino[1,2-b]quinolin-9-yl 4-(4-(3-(2,4-dihydroxy-5-isopropylphenyl)-5-hydroxy-4H-1,2,4-triazol-4-yl)benzyl)piperazine-1-carboxylate], for which the concentration at 12 h in data set [2] (female, SCID, tissue distribution of SDC-TRAP-0046, 12 h, read-out: Plasma Conc.) was found to be 54.2 nM. Further, in data set [2] (female, SCID, tissue distribution of SDC-TRAP-0046, 12 h, read-out: Tumor/Plasma Ratio), the Kp at 12 h is 40.3. Further, in data set [5] (1 h), the “Mouse (5 μM) % Remaining 1 h (37° C.) §” value was 62%, the “Mouse (5 μM) % Remaining 1 h (37° C.) *” value turned out to be 65% and the “Mouse (10 μM) % Remaining 1 h (37° C.) *” value was 57%. For the same compound, the “Mouse (5 μM) % Remaining 19 h (37° C.)” value in data set [5] turned out to be 37%. The compound also came in with a Papp at 5 h in data set [3] of 0.0122 ×10⁻⁶ cm/s. Moreover, in data set [3] (same protocol, second table), the “Mass Retention (%)” value turned out to be 88.1% and the “Permeability (10^−6 cm/s)” value was 0.0122 10^−6 cm/s.
With `CC(C)c1cc(-c2nnc(O)n2-c2ccc(CN3CCN(C(=O)c4ccc(CCc5c[nH]c6nc(N)[nH]c(=O)c56)cc4)CC3)cc2)c(O)cc1O` [SDC-TRAP-0068, 2-amino-5-(4-(4-(4-(3-(2,4-dihydroxy-5-isopropylphenyl)-5-hydroxy-4H-1,2,4-triazol-4-yl)benzyl)piperazine-1-carbonyl)phenethyl)-3H-pyrrolo[2,3-d]pyrimidin-4(7H)-one], the “% Remaining (l h)” value in data set [5] (mouse, plasma, 1 h, 10 µM) came out at 96.5%.
`CCc1c2c(nc3ccc(OC(=O)N4CCN(c5ccc(-n6c(O)nnc6-c6cc(C(C)C)c(O)cc6O)cc5)CC4)cc13)-c1cc3c(c(=O)n1C2)COC(=O)C3(O)CC` (stereo not drawn) [SDC-TRAP-0045, 4,11-diethyl-4-hydroxy-3,14-dioxo-3,4,12,14-tetrahydro-1H-pyrano[3′,4′:6,7]indolizino[1,2-b]quinolin-9-yl 4-(4-(3-(2,4-dihydroxy-5-isopropylphenyl)-5-hydroxy-4H-1,2,4-triazol-4-yl)phenyl)piperazine-1-carboxylate]: in data set [5] (1 h), the “Mouse (5 μM) % Remaining 1 h (37° C.) §” value was 72%, the “Mouse (5 μM) % Remaining 1 h (37° C.) *” value is 77% and the “Mouse (10 μM) % Remaining 1 h (37° C.) *” value worked out at 45%. The “Mouse (5 μM) % Remaining 19 h (37° C.)” value in data set [5] is 50%.
With `CCc1c2c(nc3ccc(OC(=O)N(C)CCOCCn4ccc5cc(-n6c(O)nnc6-c6cc(C(C)C)c(O)cc6O)ccc54)cc13)-c1cc3c(c(=O)n1C2)COC(=O)C3(O)CC` (stereo not drawn) [SDC-TRAP-0029, 4,11-diethyl-4-hydroxy-3,14-dioxo-3,4,12,14-tetrahydro-1H-pyrano[3′,4′:6,7]indolizino[1,2-b]quinolin-9-yl(2-(2-(5-(3-(2,4-dihydroxy-5-isopropylphenyl)-5-hydroxy-4H-1,2,4-triazol-4-yl)-1H-indol-1-yl)ethoxy)ethyl)(methyl)carbamate], in data set [5] (1 h), the “Mouse (5 μM) % Remaining 1 h (37° C.) §” value was found to be 43%, the “Mouse (5 μM) % Remaining 1 h (37° C.) *” value came to 46% and the “Mouse (10 μM) % Remaining 1 h (37° C.) *” value was determined as 47%. Also, the “Mouse (5 μM) % Remaining 19 h (37° C.)” value in data set [5] was 29%. The same compound yielded an apparent permeability (Papp) at 5 h in data set [3] of 0.00646 ×10⁻⁶ cm/s. In addition, in data set [3] (same protocol, second table), the “Mass Retention (%)” value stood at 84.0% and the “Permeability (10^−6 cm/s)” value was 0.00646 10^−6 cm/s.
For the compound `CC(C)c1cc(-c2nnc(O)n2-c2ccc3c(ccn3CCNC(=O)CCCC[C@@H]3SC[C@@H]4NC(=O)N[C@@H]43)c2)c(O)cc1O` [SDC-TRAP-0233], in data set [6], the “Mass Retention (%)” value was 10.9%, the “Permeability” value came out at 0.021 ×10⁻⁶ cm/s and the “Permeability (10^−6 cm/s)” value is given as 0.021 10^−6 cm/s.
